Results: US8895753B2, “S1P receptor modulating agent” (Meiji Seika Pharma Co., Ltd., priority 2011, dated 2014)
Several values for one entry are separate records, joined by “and”; a condition that tells them apart may be missing. Identical values can stand only once.

Legend:
Human S1P1 receptor [1] = target: T1, Human S1P1 receptor (Homo sapiens, UniProt P21453); test: Agonist activity at an S1P1 receptor ([35S]-GTPγS exchange reaction, membrane fractions); assay type: biochemical; conditions: read-out: EC50, agonist activity at S1P1 receptor (GTP exchange reaction)
T1 sequence (P21453 whole entry): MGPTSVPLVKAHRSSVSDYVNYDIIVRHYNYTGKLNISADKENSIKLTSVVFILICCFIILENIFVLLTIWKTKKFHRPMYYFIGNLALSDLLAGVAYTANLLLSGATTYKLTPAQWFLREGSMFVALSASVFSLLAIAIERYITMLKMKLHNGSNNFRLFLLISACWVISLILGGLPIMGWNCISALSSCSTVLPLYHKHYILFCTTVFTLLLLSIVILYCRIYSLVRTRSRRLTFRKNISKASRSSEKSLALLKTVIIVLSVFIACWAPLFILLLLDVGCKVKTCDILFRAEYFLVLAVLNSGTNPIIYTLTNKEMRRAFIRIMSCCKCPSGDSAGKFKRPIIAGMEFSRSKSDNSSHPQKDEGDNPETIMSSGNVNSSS
Procedure: (§1) By using membrane fractions prepared from a human S1P1 receptor expressing cells (Multispan Ltd.), the agonist activity of each test compound was measured by [^35S]-GTPγS exchange reaction in accordance with a standard procedure (Methods in Molecular Biology, Vol. 552, p 143-151 (2009)), and EC50 (nM) of each test compound was computed.

Human S1P4 receptor = target: T2, Human S1P4 receptor (Homo sapiens, UniProt O95977); test: Agonist activity at an S1P4 receptor (calcium influx); assay type: cell-based; conditions: at 1000 nM; read-out: activity at S1P4 receptor (elevation of intracellular calcium)
T2 sequence (O95977 1-384): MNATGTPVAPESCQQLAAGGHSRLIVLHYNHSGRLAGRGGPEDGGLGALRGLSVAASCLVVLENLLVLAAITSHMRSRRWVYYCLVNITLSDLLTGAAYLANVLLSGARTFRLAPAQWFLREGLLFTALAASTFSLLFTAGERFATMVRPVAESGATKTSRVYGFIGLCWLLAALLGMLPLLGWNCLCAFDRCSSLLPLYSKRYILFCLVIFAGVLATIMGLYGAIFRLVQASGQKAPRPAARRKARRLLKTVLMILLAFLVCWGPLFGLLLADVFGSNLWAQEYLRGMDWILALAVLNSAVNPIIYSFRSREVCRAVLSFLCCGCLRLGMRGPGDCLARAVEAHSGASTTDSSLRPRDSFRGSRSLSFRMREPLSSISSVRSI
Procedure: By using Human S1P4 receptor expressing cells (Multispan Inc. CG1052-1), the elevation of intracellular calcium concentration via agonist activity by the addition of 1000 nM was measured by Fret method (fluorescence resonance energy transfer).

Human S1P1 receptor [2] = target: T1, Human S1P1 receptor; test: Agonist activity at an S1P1 receptor (reporter assay, EDG1-bla/U2OS cells); assay type: cell-based; design: host or cells: U2OS (EDG1-bla/U2OS); conditions: S1P maximum response = 100%
Procedure: Human S1P1 receptor gene recombinant EDG1-bla/U2OS cells (Life Technologies Japan Ltd.) were plated in a 96-well half-sized clear bottom black plate at a density of 10000 cells/32 μL/well, and then the plate was incubated at 37° C. in a 5% CO2 incubator for 48 hours. A culture medium containing each test compound prepared as a 5× concentrate was added at 8 μL/well, and the plate was incubated at 37° C. in a 5% CO2 incubator for 5 hours. The substrate (LiveBLAzer™-FRET B/G substrate (CCF4-AM), Life Technologies Japan Ltd.) prepared as a 6× concentrate was added at 8 μL into each well, and the plate was incubated at room temperature for 2 hours in the dark. The fluorescence intensity of each well was detected using a bottom-reading fluorescence microplate reader (EnVision: ParkinElmer) at one excitation wavelength and 2 wavelengths for fluorescence emission (Ex409 nm, Em460 nm, Em530 nm). The intensity ratio of fluorescence at 460 nm/530 nm was calculated for each well. The maximum response ratio confirmed from the dose response of SIP was expressed as 100%. The concentration of a test compound required to stimulate 50% of its maximal activation was computed as EC50 (nM).

Human S1P3 receptor = Human S1P3 receptor (Homo sapiens, UniProt Q99500); test: Agonist activity at an S1P3 receptor ([35S]-GTPγS exchange reaction at 1000 nM); assay type: biochemical; conditions: read-out: percent of the maximal agonist activity at S1P3 receptor
Chain of Human S1P3 receptor (Q99500 whole entry): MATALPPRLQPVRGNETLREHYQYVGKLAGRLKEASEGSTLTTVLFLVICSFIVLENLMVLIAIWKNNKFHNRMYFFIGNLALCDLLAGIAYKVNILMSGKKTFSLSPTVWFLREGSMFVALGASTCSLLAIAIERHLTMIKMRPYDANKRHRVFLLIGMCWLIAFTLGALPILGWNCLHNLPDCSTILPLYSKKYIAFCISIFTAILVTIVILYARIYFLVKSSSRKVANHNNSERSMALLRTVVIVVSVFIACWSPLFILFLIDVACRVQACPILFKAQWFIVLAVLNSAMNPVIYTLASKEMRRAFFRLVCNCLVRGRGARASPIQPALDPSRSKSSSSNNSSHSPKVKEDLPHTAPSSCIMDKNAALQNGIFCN
Procedure: as §1
By using membrane fractions prepared from Human S1P3 receptor expressing cells (Multispan Inc.), the agonist activity of the compound in the present invention was measured by a [^35S]-GTPγS exchange reaction at 1000 nM by the similar method of the Experimental Example 2.

Row | SMILES | EC50 (Human S1P1 receptor [1]) [nM] | activation at 1 µM (Human S1P4 receptor) [%] | EC50 (Human S1P1 receptor [2]) | Emax at 1 µM (Human S1P3 receptor) [%]
1 | CC(C)Oc1ccc(-c2cnc(-c3ccc(C(C)N4CC(C(=O)O)C4)cc3)s2)cc1 (stereo not shown) [Example 8, 1-(1-(4-(5-(4-isopropoxyphenyl)thiazol-2-yl)phenyl)ethyl)azetidine-3-carboxylic acid] | ≤ 100 | < 20 | ≤ 10 nM and 6.58 nM | 
2 | CC(C)Oc1ccc(-c2cnc(-c3ccc(CN4CC(C(=O)O)C4)cc3F)s2)cc1Cl [Example 11, 1-(4-(5-(3-chloro-4-isopropoxyphenyl)thiazol-2-yl)-3-fluorobenzyl)azetidine-3-carboxylic acid] | ≤ 10 | < 20 | ≤ 1 nM and 0.076 nM | 20 to 50
3 | CC(C)Oc1ccc(-c2cnc(-c3ccc(CN4CC(C(=O)O)C4)cc3Cl)s2)cc1 [Example 12, 1-(3-chloro-4-(5-(4-isopropoxyphenyl)thiazol-2-yl)benzyl)azetidine-3-carboxylic acid] | ≤ 50 | < 20 | ≤ 10 nM | 20 to 50
4 | CCc1cc(CN2CC(C(=O)O)C2)ccc1-c1ncc(-c2ccc(OC(C)C)cc2)s1 [Example 15, 1-(3-ethyl-4-(5-(4-isopropoxyphenyl)thiazol-2-yl)benzyl)azetidine-3-carboxylic acid] |  | < 20 | ≤ 10 nM | < 20
5 | CC(C)Oc1ccc(-c2cnc(-c3ccc(CN4CC(C(=O)O)C4)cc3F)s2)cc1 [Example 17, 1-(3-fluoro-4-(5-(4-isopropoxyphenyl)thiazol-2-yl)benzyl)azetidine-3-carboxylic acid] | ≤ 50 | < 20 | ≤ 10 nM | 
6 | Cc1cc(CN2CC(C(=O)O)C2)ccc1-c1ncc(-c2ccc(OC(C)C)cc2)s1 [Example 21, 1-(4-(5-(4-isopropoxyphenyl)thiazol-2-yl)-3-methylbenzyl)azetidine-3-carboxylic acid] | ≤ 50 | < 20 | ≤ 10 nM | 20 to 50
7 | CC(C)Oc1ccc(-c2cnc(-c3ccc(CN4CC(C(=O)O)C4)c(F)c3)s2)cc1 [Example 22, 1-(2-fluoro-4-(5-(4-isopropoxyphenyl)thiazol-2-yl)benzyl)azetidine-3-carboxylic acid] | ≤ 10 | < 20 | ≤ 10 nM | < 20
8 | CC(C)Oc1ccc(-c2cnc(-c3ccc(CN4CC(C(=O)O)C4)c(Cl)c3)s2)cc1 [Example 23, 1-(2-chloro-4-(5-(4-isopropoxyphenyl)thiazol-2-yl)benzyl)azetidine-3-carboxylic acid] | ≤ 50 | < 20 | ≤ 10 nM | < 20
9 | CCOc1ccc(-c2cnc(-c3ccc(CN4CC(C(=O)O)C4)cc3)s2)cc1 [Example 31, 1-(4-(5-(4-ethoxyphenyl)thiazol-2-yl)benzyl)azetidine-3-carboxylic acid] | ≤ 50 | < 20 | ≤ 100 nM | < 20
10 | O=C(O)C1CN(Cc2ccc(-c3ncc(-c4ccc(C5CCCC5)cc4)s3)cc2)C1 [Example 34, 1-(4-(5-(4-cyclopentylphenyl)thiazol-2-yl)benzyl)azetidine-3-carboxylic acid] | ≤ 10 | < 20 | ≤ 1 nM | < 20
11 | O=C(O)C1CN(Cc2ccc(-c3ncc(-c4ccc(C5CCCCC5)cc4)s3)cc2)C1 [Example 36, 1-(4-(5-(4-cyclohexylphenyl)thiazol-2-yl)benzyl)azetidine-3-carboxylic acid] | ≤ 100 | < 20 | ≤ 10 nM | < 20
12 | Cc1cc(CN2CC(C(=O)O)C2)ccc1-c1ncc(-c2ccc(OC(C)C)c(Cl)c2)s1 [Example 37, 1-(4-(5-(3-chloro-4-isopropoxyphenyl)thiazol-2-yl)-3-methylbenzyl)azetidine-3-carboxylic acid] | ≤ 10 | < 20 | ≤ 1 nM | 20 to 50
13 | CCCOc1ccc(-c2cnc(-c3ccc(CN4CC(C(=O)O)C4)cc3)s2)cc1 [Example 38] | ≤ 50 | < 20 | ≤ 100 nM | < 20
14 | O=C(O)C1CN(Cc2ccc(-c3ncc(-c4ccc(OC5CCCC5)cc4)s3)cc2)C1 [Example 41, 1-(4-(5-(4-(cyclopentyloxy)phenyl)thiazol-2-yl)benzyl)azetidine-3-carboxylic acid] |  |  | ≤ 100 nM | 
15 | O=C(O)C1CN(Cc2ccc(-c3ncc(-c4ccc(OC5CCCCC5)cc4)s3)cc2)C1 [Example 43, 1-(4-(5-(4-(cyclohexyloxy)phenyl)thiazol-2-yl)benzyl)azetidine-3-carboxylic acid] |  |  | ≤ 100 nM | 
16 | CCCc1ccc(-c2cnc(-c3ccc(CN4CC(C(=O)O)C4)cc3)s2)cc1 [Example 45, 1-(4-(5-(4-propylphenyl)thiazol-2-yl)benzyl)azetidine-3-carboxylic acid] | ≤ 50 | < 20 | ≤ 10 nM | < 20
17 | CC(C)c1ccc(-c2cnc(-c3ccc(CN4CC(C(=O)O)C4)cc3)s2)cc1 [Example 46, 1-(4-(5-(4-isopropylphenyl)thiazol-2-yl)benzyl)azetidine-3-carboxylic acid] | ≤ 50 | < 20 | ≤ 10 nM | < 20
18 | CCCCc1ccc(-c2cnc(-c3ccc(CN4CC(C(=O)O)C4)cc3)s2)cc1 [Example 47, 1-(4-(5-(4-butylphenyl)thiazol-2-yl)benzyl)azetidine-3-carboxylic acid] | ≤ 50 | < 20 | ≤ 10 nM | < 20
19 | CC(C)Cc1ccc(-c2cnc(-c3ccc(CN4CC(C(=O)O)C4)cc3)s2)cc1 [Example 48, 1-(4-(5-(4-isobutylphenyl)thiazol-2-yl)benzyl)azetidine-3-carboxylic acid] | ≤ 50 | < 20 | ≤ 1 nM | 20 to 50
20 | CCCCCc1ccc(-c2cnc(-c3ccc(CN4CC(C(=O)O)C4)cc3)s2)cc1 [Example 49, 1-(4-(5-(4-pentylphenyl)thiazol-2-yl)benzyl)azetidine-3-carboxylic acid] |  |  | ≤ 100 nM | 
21 | CC(C)Oc1ccc(-c2cnc(-c3ccc(CN4CC(C(=O)O)C4)cc3)s2)cc1C#N [Example 50, 1-(4-(5-(3-cyano-4-isopropoxyphenyl)thiazol-2-yl)benzyl)azetidine-3-carboxylic acid] | ≤ 50 | < 20 | ≤ 1 nM | 20 to 50
22 | O=C(O)C1CN(Cc2ccc(-c3ncc(-c4ccc(OC5CCC5)cc4)s3)cc2)C1 [Example 51, 1-(4-(5-(4-cyclobutoxyphenyl)thiazol-2-yl)benzyl)azetidine-3-carboxylic acid] | ≤ 500 | < 20 | ≤ 100 nM | 20 to 50
23 | Cc1cc(-c2cnc(-c3ccc(CN4CC(C(=O)O)C4)cc3)s2)ccc1OC(C)C [Example 52, 1-(4-(5-(4-isopropoxy-3-methylphenyl)thiazol-2-yl)benzyl)azetidine-3-carboxylic acid] | ≤ 50 | < 20 | ≤ 1 nM | 20 to 50
24 | CC(C)Oc1ccc(-c2cnc(-c3ccc(CN4CC(C(=O)O)C4)cc3)s2)cc1F [Example 53, 1-(4-(5-(3-fluoro-4-isopropoxyphenyl)thiazol-2-yl)benzyl)azetidine-3-carboxylic acid] | ≤ 500 | < 20 | ≤ 10 nM | 20 to 50
25 | Cc1cc(OC(C)C)ccc1-c1cnc(-c2ccc(CN3CC(C(=O)O)C3)cc2)s1 [Example 54, 1-(4-(5-(4-isopropoxy-2-methylphenyl)thiazol-2-yl)benzyl)azetidine-3-carboxylic acid] |  |  | ≤ 100 nM | 
